In patent publication US20260167627A1, “NEW SOLID FORMS OF (3R)-N-[2-CYANO-4-FLUORO-3-(3-METHYL-4-OXO-QUINAZOLIN-6-YL)OXY-PHENYL]-3-FLUORO-PYRROLIDINE-1-SULFONAMIDE” (Hoffmann-La Roche Inc., priority 2023, published 2026):

Columns and labels:
[1] = cited from earlier work
[2] = Thermodynamic stability of the solid form; type: physicochemical
[3] = Moisture sorption/desorption (DVS), hygroscopicity; type: physicochemical
Description: Moisture sorption/desorption data was collected on a DVS Advantage, a DVS Adventure, or a DVS Intrinsic (SMS Surface Measurements Systems) moisture balance system. The sorption/desorption isotherms were measured stepwise in a range from 0%-RH to 90%-RH at typically 25° C. A weight change of typically <0.001%/min was chosen as criterion to switch to the next level of relative humidity (with a maximum equilibration time of typically 24 hours, if the weight change criterion was not met). The data were corrected for the initial moisture content of the samples by taking the weight after drying of the samples at 0%-RH as zero point.
The hygroscopicity of a given substance was characterized (by close analogy with the European Pharmacopoeia) by the increase in mass when the relative humidity was raised from 0%-RH to 90%-RH:
European Pharmacopoeia-8″ Edition (2014), Chapter 5.11.

[4] = Thermogravimetric analysis (TGA); type: physicochemical; settings: heating rate 5 K/min under nitrogen, FIG. 3
Description: Thermogravimetric analyses (TGA) were performed on a Mettler-Toledo™ thermogravimetric analyzer (TGA/DSC1 or TGA/DSC3+). System suitability tests were performed with Hydranal as reference substance and calibrations using Aluminum and Indium as reference substances. For the thermogravimetric analyses, approx. 5 to 15 mg (about 7.197 mg of Form B) of sample were placed in aluminum pans, accurately weighed and hermetically closed with perforation lids. Prior to measurement, the lids were automatically pierced resulting in approx. 0.5 mm pin holes. The samples were then heated under a flow of nitrogen of about 50 mL/min using a heating rate of 5 K/min to a maximum temperature of typically 350° C.

thermodynamic stability of solid form [2] | water uptake according to European Pharmacopeia ([3]; 0%-RH to 90%-RH) [%] | mass loss (TGA) [4] [%] | Compound | brain permeability [1] | hygroscopicity class ([3]; relative humidity raised from 0%-RH to 90%-RH, typically 25° C.)
– | – | – | CC(C)(C)c1nc(-c2cccc(NS(=O)(=O)c3c(F)cccc3F)c2F)c(-c2ccnc(N)n2)s1 [Dabrafenib] | very poor | –
– | – | – | COC(=O)N[C@@H](C)CNc1nccc(-c2cn(C(C)C)nc2-c2cc(Cl)cc(NS(C)(=O)=O)c2F)n1 [Encorafenib] | very poor | –
thermodynamically stable form | < 0.2 | 0.087 | Cn1cnc2ccc(Oc3c(F)ccc(NS(=O)(=O)N4CC[C@@H](F)C4)c3C#N)cc2c1=O [Form B, (3R)—N-[2-cyano-4-fluoro-3-(3-methyl-4-oxo-quinazolin-6-yl)oxy-phenyl]-3-fluoro-pyrrolidine-1-sulfonamide] | – | non-hygroscopic (weight increase Dm < 0.2%)
– | – | – | CCCS(=O)(=O)Nc1ccc(F)c(C(=O)c2c[nH]c3ncc(-c4ccc(Cl)cc4)cc23)c1F [Vemurafenib] | very poor | –
